Results reported in patent publication US20140186376A1, “Compositions and Methods for Inhibiting CCL3” (University of Rochester, priority 2012, published 2014).

System: osteoclasts
Assay: Zoledronic acid treatment of normal mice: serum bone markers (ELISA) and micro-CT bone volumes
Format: in vivo
Settings: normal ZA-treated mice; 0.25 mg/kg i.p. bi-weekly; vehicle 142±28; p=0.0296
Experimental: The right hindlimb of each mouse was fixed in 10% Formalin for 48 hours, and then stored in 70% ethanol at 4° C. MicroCT analysis was performed as previously described (2009, Frisch et al., Blood 114:4054-4063).
All ELISAs were performed as indicated by the manufacturer's instructions. CTX measurements were performed using the RatLaps ELISA (AC-06F1, Immunodiagnostic Systems Inc.). TRACP 5b measurement was performed using Mouse TRAP ELISA (SB-TR103, Immunodiagnostic Systems Inc.). Osteocalcin measurement performed using the Mouse Osteocalcin EIA kit (BT-470, Biomedical Technologies). Bovine CTX from bone wafer culture media was measured using the Crosslaps® for Culture ELISA (AC-07F1, Immunodiagnostic Systems Inc.). Murine CCL3 protein measurement was performed using the Mouse CCL3/MIP-1 alpha Quantikine ELISA Kit (MMA00, R&D systems). Human CCL3 protein measurement was performed using the Human CCL3/MIP-1 alpha Quantikine ELISA Kit (DMA00, R&D systems).
Mice were given a 0.25 mg/kg intraperitoneal injection of zoledronic acid (ZA) bi-weekly for 2 weeks prior to induction of disease and throughout the course of the disease.

O=P(O)(O)C(O)(Cn1ccnc1)P(=O)(O)O [ZA, Zoledronic acid]
serum levels of osteocalcin: 49 ± 1 ng/mL
